Results reported in US8846739B2, “TGR5 agonists” (Exelixis Patent Company LLC, priority 2009, dated 2014).

Key:
[1] = target: T1, h-TGR5 (Homo sapiens, UniProt Q8TDU6); assay: TGR5 cAMP Assay using Cisbio cAMP Dynamic 2 htrf assay kit; type: cell-based; conditions: hTGR5CRE-luc HEK 293 cells
T1 sequence (Q8TDU6 1-330): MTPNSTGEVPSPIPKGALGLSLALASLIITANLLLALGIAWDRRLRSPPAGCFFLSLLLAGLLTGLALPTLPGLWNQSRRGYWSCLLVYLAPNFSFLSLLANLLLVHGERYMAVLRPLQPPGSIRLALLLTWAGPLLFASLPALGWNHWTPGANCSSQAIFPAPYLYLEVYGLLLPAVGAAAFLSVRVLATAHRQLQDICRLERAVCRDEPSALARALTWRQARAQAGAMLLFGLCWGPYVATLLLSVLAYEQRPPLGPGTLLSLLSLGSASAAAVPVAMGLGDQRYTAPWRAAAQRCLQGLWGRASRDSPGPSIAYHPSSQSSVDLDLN

[2] = target: T2, human TGR5 (h-TGR5) (Homo sapiens, UniProt Q8TDU6); assay: TGR5/CRE-Luciferase Assay; type: cell-based; conditions: HEK 293 hTGR5/CRE-Luc cells, 6 hours incubation, read-out: CRE-Luc Agonist (EC50)
T2 sequence (Q8TDU6 1-330): T1 sequence (Q8TDU6 1-330)
Method in brief: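 HEK 293 CRE-Luciferase cells stably expressing the receptor, plated in DMEM 18-20 h before assay, then exposed to serially diluted compounds (DMEM with 5% DMSO) for 6 h. Luciferase read-out after lysis; EC50 from dose-response.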

EC50 [1] | EC50 [2] | SMILES
< 100 nM | < 100 nM | COc1cc(C(C)(C)c2cnc(SCc3c(F)cc(S(=O)(=O)N(C)[C@H](CCCC[N+](C)(C)C)C(=O)O)cc3Cl)n2-c2ccc(F)cc2)ccc1Cl [Compound 17j, (R)-5-carboxy-5-(3-chloro-4-((5-(2-(4-chloro-3-methoxyphenyl)propan-2-yl)-1-(4-fluorophenyl)-1H-imidazol-2-ylthio)methyl)-5-fluoro-N-methylphenylsulfonamido)-N,N,N-trimethylpentan-1-aminium 2,2,2-trifluoroacetate]
< 100 nM | < 100 nM | COc1cc(C(C)(C)c2cnc(CCc3c(F)cc(S(=O)(=O)N(C)[C@@H](CCCC[N+](C)(C)C)C(=O)O)cc3Cl)n2-c2ccc(F)cc2)ccc1Cl [Compound 17o, (S)-5-carboxy-5-(3-chloro-4-(2-(5-(2-(4-chloro-3-methoxyphenyl)propan-2-yl)-1-(4-fluorophenyl)-1H-imidazol-2-yl)ethyl)-5-fluoro-N-methylphenylsulfonamido)-N,N,N-trimethylpentan-1-aminium 2,2,2-trifluoroacetate]
< 100 nM | < 100 nM | COc1cc(C(C)(C)c2cnc(SCc3c(F)cc(S(=O)(=O)N(CCC[N+](C)(C)C)Cc4cccc(C(=O)O)c4)cc3F)n2-c2ccc(F)cc2)ccc1Cl [Compound 14v, 3-([(3-carboxyphenyl)methyl]{[4-({[5-{1-[4-chloro-3-(methyloxy)phenyl]-1-methylethyl}-1-(4-fluorophenyl)-1H-imidazol-2-yl]thio}methyl)-3,5-difluorophenyl]sulfonyl}amino)-N,N,N-trimethylpropan-1-aminium]
< 100 nM | < 100 nM | COc1cc(C(C)(C)c2cnc(SCc3cc(S(=O)(=O)NCCC[N+](C)(C)C)c(Cl)cc3F)n2-c2ccc(F)cc2)ccc1Cl [Example 6q, 3-({[2-chloro-5-({[5-{1-[4-chloro-3-(methyloxy)phenyl]-1-methylethyl}-1-(4-fluorophenyl)-1H-imidazol-2-yl]thio}methyl)-4-fluorophenyl]sulfonyl}amino)-N,N,N-trimethylpropan-1-aminium]
< 100 nM | < 100 nM | CC[C@H](C(=O)O)N(CCC[N+](C)(C)C)S(=O)(=O)c1cc(F)c(CSc2ncc(C(C)(C)c3ccc(Cl)c(OC)c3)n2-c2ccc(F)cc2)c(Cl)c1 [Compound 14ab, 3-([(1R)-1-carboxypropyl]{[3-chloro-4-({[5-{1-[4-chloro-3-(methyloxy)phenyl]-1-methylethyl}-1-(4-fluorophenyl)-1H-imidazol-2-yl]thio}methyl)-5-fluorophenyl]sulfonyl}amino)-N,N,N-trimethylpropan-1-aminium]
< 100 nM | < 100 nM | CC[N+](C)(C)CCCN(C)S(=O)(=O)c1cc(F)c(CSc2ncc(C(C)(C)c3ccc(Cl)c(OC)c3)n2-c2ccc(F)cc2)c(Cl)c1 [Compound 11m, 3-[{[3-chloro-4-({[5-{1-[4-chloro-3-(methyloxy)phenyl]-1-methylethyl}-1-(4-fluorophenyl)-1H-imidazol-2-yl]thio}methyl)-5-fluorophenyl)sulfonyl}(methyl)amino]-N-ethyl-N,N-dimethylpropan-1-aminium]
< 100 nM | < 100 nM | COc1cc(C(C)(C)c2cnc(SCc3c(F)cc(S(=O)(=O)N(CCC[N+](C)(C)C)CC(N)=O)cc3F)n2-c2ccc(F)cc2)ccc1Cl [Compound 12h, 3-(N-(2-amino-2-oxoethyl)-4-((5-(2-(4-chloro-3-methoxyphenyl)propan-2-yl)-1-(4-fluorophenyl)-1H-imidazol-2-ylthio)methyl)-3,5-difluorophenylsulfonamido)-N,N,N-trimethylpropan-1-aminium 2,2,2-trifluoroacetate]
< 100 nM | < 100 nM | COc1cc(C(C)(C)c2cnc(SCc3c(F)cc(S(=O)(=O)N(C)[C@@H](CCC[N+](C)(C)C)C(=O)O)cc3Cl)n2-c2ccc(F)cc2)ccc1Cl [Compound 17b, (S)-4-carboxy-4-(3-chloro-4-((5-(2-(4-chloro-3-methoxyphenyl)propan-2-yl)-1-(4-fluorophenyl)-1H-imidazol-2-ylthio)methyl)-5-fluoro-N-methylphenylsulfonamido)-N,N,N-trimethylbutan-1-aminium 2,2,2-trifluoroacetate]
< 100 nM | < 100 nM | COc1cc(C(C)(C)c2cnc(SCc3c(F)cc(S(=O)(=O)N4CCC([N+](C)(C)C)CC4)cc3Cl)n2-c2ccc(F)cc2)ccc1Cl [Compound 11f, 1-{[3-chloro-4-({[5-{1-[4-chloro-3-(methyloxy)phenyl]-1-methylethyl}-1-(4-fluorophenyl)-1H-imidazol-2-yl]thio}methyl)-5-fluorophenyl]sulfonyl}-N,N,N-trimethylpiperidin-4-aminium]
< 100 nM | < 100 nM | COc1cc(C(C)(C)c2cnc(SCc3c(F)cc(S(=O)(=O)NCCCC[N+](C)(C)C)cc3F)n2-c2ccc(F)cc2)ccc1Cl [Example 6r, 4-({[4-({[5-{1-[4-chloro-3-(methyloxy)phenyl]-1-methylethyl}-1-(4-fluorophenyl)-1H-imidazol-2-yl]thio}methyl)-3,5-difluorophenyl]sulfonyl}amino)-N,N,N-trimethylbutan-1-aminium]
< 100 nM | < 100 nM | COc1cc(C(C)(C)c2cnc(SCc3c(F)cc(S(=O)(=O)N(CCCC[N+](C)(C)C)[C@H](C)C(=O)O)cc3Cl)n2-c2ccc(F)cc2)ccc1Cl [Compound 14aa, 4-([(1R)-1-carboxyethyl]{[3-chloro-4-({[5-{1-[4-chloro-3-(methyloxy)phenyl]-1-methylethyl}-1-(4-fluorophenyl)-1H-imidazol-2-yl]thio}methyl)-5-fluorophenyl]sulfonyl}amino)-N,N,N-trimethylbutan-1-aminium]
< 100 nM | < 100 nM | COc1cc(C(C)(C)c2cnc(SCc3c(F)cc(CCCC[N+](C)(C)C)cc3F)n2-c2ccc(F)cc2)ccc1Cl [Compound 19e, 4-(4-((5-(2-(4-chloro-3-methoxyphenyl)propan-2-yl)-1-(4-fluorophenyl)-1H-imidazol-2-ylthio)methyl)-3,5-difluorophenyl)-N,N,N-trimethylbutan-1-aminium 2,2,2-trifluoroacetate]
< 100 nM | < 100 nM | COc1cc(C(C)(C)c2cnc(SCc3c(F)cc(S(=O)(=O)NCCC[N+](C)(C)C)cc3F)n2-c2ccc(F)cc2)ccc1Cl [Example 6, 3-(4-((5-(2-(4-Chloro-3-methoxyphenyl)propan-2-yl)—(4-fluorophenyl)-1H-imidazol-2-ylthio)methyl)-3,5-difluorophenylsulfonamido)-N,N,N-trimethylpropan-1-aminium 2,2,2-trifluoroacetate]
< 100 nM | < 100 nM | COc1cc(C(C)(C)c2cnc(SCc3c(F)cc(S(=O)(=O)N(CCC[N+](C)(C)C)[C@H](C)C(=O)O)cc3Cl)n2-c2ccc(F)cc2)ccc1Cl [Compound 14y, 3-([(1R)-1-carboxyethyl]{[3-chloro-4-({[5-{1-[4-chloro-3-(methyloxy)phenyl]-1-methylethyl}-1-(4-fluorophenyl)-1H-imidazol-2-yl]thio}methyl)-5-fluorophenyl]sulfonyl}amino)-N,N,N-trimethylpropan-1-aminium]
< 100 nM | < 100 nM | COc1cc(C(C)(C)c2cnc(SCc3c(F)cc(S(=O)(=O)N[C@@H](CCCC[N+](C)(C)C)C(=O)O)cc3Cl)n2-c2ccc(F)cc2)ccc1Cl [Compound 17e, (S)-5-carboxy-5-(3-chloro-4-((5-(2-(4-chloro-3-methoxyphenyl)propan-2-yl)-1-(4-fluorophenyl)-1H-imidazol-2-ylthio)methyl)-5-fluorophenylsulfonamido)-N,N,N-trimethylpentan-1-aminium 2,2,2-trifluoroacetate]
< 100 nM | < 100 nM | COc1cc(C(C)(C)c2cnc(SCc3c(F)cc(S(=O)(=O)N[C@H]4CCC[N+](C)(C)C4)cc3F)n2-c2ccc(F)cc2)ccc1Cl [Compound 11e, (3S)-3-({[4-({[5-{1-[4-chloro-3-(methyloxy)phenyl]-1-methylethyl}-1-(4-fluorophenyl)-1H-imidazol-2-yl]thio}methyl)-3,5-difluorophenyl]sulfonyl}amino)-1,1-dimethylpiperidinium]
< 100 nM | < 100 nM | COc1cc(C(C)(C)c2cnc(SCc3c(F)cc(S(=O)(=O)N4CCC(C[N+](C)(C)C)(C(=O)O)CC4)cc3F)n2-c2ccc(F)cc2)ccc1Cl [Compound 11x, (4-carboxy-1-{[4-({[5-{1-[4-chloro-3-(methyloxy)phenyl]-1-methylethyl}-1-(4-fluorophenyl)-1H-imidazol-2-yl]thio}methyl)-3,5-difluorophenyl]sulfonyl}piperidin-4-yl)-N,N,N-trimethylmethanaminium]
< 100 nM | < 100 nM | COc1cc(C(C)(C)c2cnc(SCc3c(F)cc(S(=O)(=O)N(CCC[n+]4ccn(C)c4)[C@H](C)C(=O)O)cc3Cl)n2-c2ccc(F)cc2)ccc1Cl [Compound 15b, (R)-3-(3-(N-(1-carboxyethyl)-3-chloro-4-((5-(2-(4-chloro-3-methoxyphenyl)propan-2-yl)-1-(4-fluorophenyl)-1H-imidazol-2-ylthio)methyl)-5-fluorophenylsulfonamido)propyl)-1-methyl-1H-imidazol-3-ium chloride]
